Patent publication US9260459B2, “4,6-hexadecadiene-2,4-dicarboxylic acid derivative” (Kyowa Hakko Kirin Co., Ltd., priority 2012, dated 2016)

The compounds below were run on human cervical cancer cell line HeLa (assay: Cell growth inhibition test against human cervical cancer cells). Conditions: compound concentration 20 μmol/L, 72 hours culture, read-out: inhibited the cell growth.
Type: cell-based
Method: As a cervical cancer cell line, a human cervical cancer cell line HeLa (DS Pharma Biomedical, Cat. No. EC93021013-F0) was used.
The cell line was cultured under conditions of 37° C. and 5% carbon dioxide.
The difference in absorbance in the well in which the cells were not treated with the compound was taken as 100%, and the difference in absorbance in the well in which the cells were not inoculated was taken as 0%, and the cell growth ratio (%) was calculated based on the difference in absorbance in the compound-treated group.

Row | Structure (SMILES) | inhibition at 20 µM [%]
1 | CCC(C)CC(C)CC(C)CC(C)/C=C(C)/C=C(/CC(C)C(=O)OC1C(=O)OC(C(=O)O)C1C(=O)O)C(=O)O (stereo not shown) [Compound 1, 4-{(4Z,6E)-4-Carboxy-2,6,8,10,12,14-hexamethylhexadec-4,6-dienoyloxy}-5-oxotetrahydrofuran-2,3-dicarboxylic Acid] | ≥ 90
2 | CCC(C)CC(C)CC(C)CC(C)/C=C(C)/C=C(/CC(C)C(=O)OC1C(=O)OC(C(=O)OCOC(C)=O)C1C(=O)OCOC(C)=O)C(=O)OCOC(C)=O (stereo not shown) [Compound 27, Di(acetoxymethyl) 4-{(4Z,6E)-4-(acetoxymethoxycarbonyl)-2,6,8,10,12,14-hexamethylhexadec-4,6-dienoyloxy}-5-oxotetrahydrofuran-2,3-dicarboxylate] | ≥ 90

Same assay, conditions: compound concentration 200 μmol/L, 72 hours culture, read-out: inhibited the cell growth

Row | Structure (SMILES) | inhibition at 200 µM [%]
3 | CCC(C)CC(C)CC(C)CC(C)/C=C(C)/C=C(/CC(C)C(=O)OC1C(=O)OC(C(=O)OC)C1C(=O)OC)C(=O)OC (stereo not shown) [Compound 5, Dimethyl 4-{(4Z,6E)-4-(methoxycarbonyl)-2,6,8,10,12,14-hexamethylhexadec-4,6-dienoyloxy}-5-oxotetrahydrofuran-2,3-dicarboxylate] | ≥ 90
4 | CCC(C)CC(C)CC(C)CC(C)/C=C(C)/C=C(/CC(C)C(=O)OC(C(=O)O)C(C(=O)OC)C(O)C(=O)OC)C(=O)OC (stereo not shown) [Compound 6, 4-Hydroxy-5-methoxy-3-(methoxycarbonyl)-2-{(4Z,6E)-4-(methoxycarbonyl)-2,6,8,10,12,14-hexamethylhexadec-4,6-dienoyloxy}-5-oxopentanoic Acid] | ≥ 90
5 | CCC(C)CC(C)CC(C)CC(C)/C=C(C)/C=C(/CC(C)C(=O)OC(C(=O)OC)C(C(=O)OC)C(O)C(=O)OC)C(=O)OC (stereo not shown) [Compound 7, Trimethyl 1-hydroxy-3-{(4Z,6E)-4(methoxycarbonyl)-2,6,8,10,12,14-hexamethylhexadec-4,6-dienoyloxy}-propane-1,2,3-tricarboxylate] | ≥ 90
6 | CCC(C)CC(C)CC(C)CC(C)/C=C(C)/C=C(/CC(C)C(=O)O)C(=O)OC(C)(C)C (stereo not shown) [Compound 8, (4Z,6E)-4-(tert-Butoxycarbonyl)-2,6,8,10,12,14-hexamethylhexadec-4,6-dienoic Acid] | ≥ 90
7 | CCC(C)CC(C)CC(C)CC(C)/C=C(C)/C=C(/CC(C)C(=O)OCC(=O)O)C(=O)O (stereo not shown) [Compound 9, (2Z,4E)-2-{3-(Carboxymethoxy)-2-methyl-3-oxopropyl}-4,6,8,10,12-pentamethyltetradec-2,4-dienoic Acid] | ≥ 90
8 | CCC(C)CC(C)CC(C)CC(C)/C=C(C)/C=C(/CC(C)C(=O)OC)C(=O)O (stereo not shown) [Compound 10, (2Z,4E)-2-(3-Methoxy-2-methyl-3-oxopropyl)-4,6,8,10,12-pentamethyltetradec-2,4-dienoic Acid] | ≥ 90
9 | CCC(C)CC(C)CC(C)CC(C)/C=C(C)/C=C(/CC(C)C(=O)OCCC(=O)O)C(=O)O (stereo not shown) [Compound 11, (2Z,4E)-2-{3-(2-Carboxyethoxy)-2-methyl-3-oxopropyl}-4,6,8,10,12-pentamethyltetradec-2,4-dienoic Acid] | ≥ 90
10 | CCC(C)CC(C)CC(C)CC(C)/C=C(C)/C=C(/CC(C)C(=O)CCCC(=O)O)C(=O)O (stereo not shown) [Compound 12, (2Z,4E)-2-{3-(3-Carboxypropyl)-2-methyl-3-oxopropyl}-4,6,8,10,12-pentamethyltetradec-2,4-dienoic Acid] | ≥ 90
11 | CCC(C)CC(C)CC(C)CC(C)/C=C(C)/C=C(/CC(C)C(=O)CCCO)C(=O)O (stereo not shown) [Compound 13, (2Z,4E)-2-{3-(3-Hydroxypropyl)-2-methyl-3-oxopropyl}-4,6,8,10,12-pentamethyltetradec-2,4-dienoic Acid] | ≥ 90
12 | CCC(C)CC(C)CC(C)CC(C)/C=C(C)/C=C(/CC(C)C(=O)O[C@@H](CC(=O)O)C(=O)O)C(=O)O (stereo partly drawn) [Compound 14, (2S)-2-{(4Z,6E)-4-Carboxy-2,6,8,10,12,14-hexamethylhexadec-4,6-dienoyloxy}succinic Acid] | ≥ 90
13 | CCC(C)CC(C)CC(C)CC(C)/C=C(C)/C=C(/CC(C)C(=O)O[C@H]1CCOC1=O)C(=O)O (stereo partly drawn) [Compound 15, (2Z,4E)-4,6,8,10,12-Pentamethyl-2-[2-methyl-3-oxo-3-{(S)-2-oxotetrahydrofuran-3-yloxy}propyl]tetradec-2,4-dienoic Acid] | ≥ 90
14 | CCC(C)CC(C)CC(C)CC(C)/C=C(C)/C=C(/CC(C)C(=O)OCC[C@H](O)C(=O)O)C(=O)O (stereo partly drawn) [Compound 16, (2Z,4E)-2-[3-{(S)-3-Carboxy-3-hydroxypropoxy}-2-methyl-3-oxopropyl]-4,6,8,10,12-pentamethyltetradec-2,4-dienoic Acid] | ≥ 90
15 | CCOP(=O)(OCC)O[C@H](C(=O)O)[C@H](OC(=O)C(C)C/C(=C/C(C)=C/C(C)CC(C)CC(C)CC(C)CC)C(=O)O)C(=O)O (stereo partly drawn) [Compound 17, (2S,3S)-2-{(4Z,6E)-4-Carboxy-2,6,8,10,12,14-hexamethylhexadec-4,6-dienoyloxy}-3-(diethoxyphosphoryloxy)succinic Acid] | ≥ 90
16 | CCC(C)CC(C)CC(C)CC(C)/C=C(C)/C=C(/CC(C)C(=O)[C@@H](CC)C(=O)O)C(=O)O (stereo partly drawn) [Compound 18, (2Z,4E)-2-[3-{(R)-1-Carboxypropyl}-2-methyl-3-oxopropyl]-4,6,8,10,12-pentamethyltetradec-2,4-dienoic Acid] | ≥ 90
17 | CCC(C)CC(C)CC(C)CC(C)/C=C(C)/C=C(/CC(C)C(=O)C[C@@H](O)CO)C(=O)O (stereo partly drawn) [Compound 19, (2Z,4E)-2-[3-{(R)-2,3-Dihydroxypropyl}-2-methyl-3-oxopropyl]-4,6,8,10,12-pentamethyltetradec-2,4-dienoic Acid] | ≥ 90
18 | CCC(C)CC(C)CC(C)CC(C)/C=C(C)/C=C(/CC(C)C(=O)O[C@@H]1CCOC1=O)C(=O)O (stereo partly drawn) [Compound 20, (2Z,4E)-4,6,8,10,12-Pentamethyl-2-[2-methyl-3-oxo-3-{(R)-2-oxotetrahydrofuran-3-yloxy}propyl]tetradec-2,4-dienoic Acid] | ≥ 90
19 | CCC(C)CC(C)CC(C)CC(C)/C=C(C)/C=C(/CC(C)C(=O)[C@@H]1COC(=O)C1)C(=O)O (stereo partly drawn) [Compound 21, (2Z,4E)-4,6,8,10,12-Pentamethyl-2-[2-methyl-3-oxo-3-{(S)-5-oxotetrahydrofuran-3-yl}propyl]tetradec-2,4-dienoic Acid] | ≥ 90
20 | CCC(C)CC(C)CC(C)CC(C)/C=C(C)/C=C(/CC(C)C(=O)OC(C(=O)O)C(=O)O)C(=O)O (stereo not shown) [Compound 22, 2-{(4Z,6E)-4-Carboxy-2,6,8,10,12,14-hexamethylhexadec-4,6-dienoyloxy}malonic Acid] | ≥ 90
21 | CCC(C)CC(C)CC(C)CC(C)/C=C(C)/C=C(/CC(C)C(=O)OC(C(=O)O)C(C(=O)O)C(=O)O)C(=O)O (stereo not shown) [Compound 23, 2-{(4Z,6E)-4-Carboxy-2,6,8,10,12,14-hexamethylhexadec-4,6-dienoyloxy}ethane-1,1,2-tricarboxylic Acid] | ≥ 90
22 | CCC(C)CC(C)CC(C)CC(C)/C=C(C)/C=C(/CC(C)C(=O)OCC(CC(=O)O)C(=O)O)C(=O)O (stereo not shown) [Compound 24, 2-[{(4Z,6E)-4-Carboxy-2,6,8,10,12,14-hexamethylhexadec-4,6-dienoyloxy}methyl]succinic Acid] | ≥ 90
23 | CCC(C)CC(C)CC(C)CC(C)/C=C(C)/C=C(/CC(C)C(=O)OCOC(C)=O)C(=O)O (stereo not shown) [Compound 28, (2Z,4E)-2-{3-(Acetoxymethoxy)-2-methyl-3-oxopropyl}-4,6,8,10,12-pentamethyltetradec-2,4-dienoic Acid] | ≥ 90
24 | CCC(C)CC(C)CC(C)CC(C)/C=C(C)/C=C(/CC(C)C(=O)OCOC(C)=O)C(=O)OCOC(C)=O (stereo not shown) [Compound 29, Bis(acetoxymethyl) (Z)-2-methyl-4-{(E)-2,4,6,8,10-pentamethyldodec-2-enylidene}pentanedioate] | ≥ 90
25 | CCC(C)CC(C)CC(C)CC(C)/C=C(C)/C=C(/CC(C)C(=O)OC(C(=O)O)C(C(=O)OCOC(C)=O)C(O)C(=O)OCOC(C)=O)C(=O)O (stereo not shown) [Compound 30, (2Z,4E)-2-[3-{4-(Acetoxymethoxy)-2-{(acetoxymethoxy)carbonyl}-1-carboxy-3-hydroxy-4-oxobutoxy}-2-methyl-3-oxopropyl]-4,6,8,10,12-pentamethyltetradec-2,4-dienoic Acid] | ≥ 90
